pEC50: −log10 of the molar value. The source made the active and inactive calls. The rule behind the calls is not given here.
Tests used:
Format in all cases: cell-based
[1] = target: T1, Glucagon-like peptide 2 receptor (Homo sapiens, UniProt O95838); assay: Agonist activity at human GLP2R expressed in HEK293 cells after 5 hrs by luciferase reporter gene assay
T1 sequence (O95838 whole entry): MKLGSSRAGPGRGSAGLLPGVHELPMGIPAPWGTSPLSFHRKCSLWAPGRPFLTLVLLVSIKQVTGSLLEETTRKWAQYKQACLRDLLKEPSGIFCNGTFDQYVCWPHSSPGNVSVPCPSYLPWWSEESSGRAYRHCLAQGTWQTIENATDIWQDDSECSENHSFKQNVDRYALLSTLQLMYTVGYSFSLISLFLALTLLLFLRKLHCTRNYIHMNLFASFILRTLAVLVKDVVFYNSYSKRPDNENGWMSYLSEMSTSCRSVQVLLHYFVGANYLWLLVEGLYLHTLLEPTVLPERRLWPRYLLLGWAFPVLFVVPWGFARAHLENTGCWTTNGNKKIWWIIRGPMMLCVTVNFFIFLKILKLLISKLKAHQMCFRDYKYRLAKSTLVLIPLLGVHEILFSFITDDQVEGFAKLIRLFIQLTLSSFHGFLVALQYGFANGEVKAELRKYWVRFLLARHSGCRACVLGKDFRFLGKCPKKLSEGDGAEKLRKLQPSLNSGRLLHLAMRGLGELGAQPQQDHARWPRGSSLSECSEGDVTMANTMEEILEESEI

[2] = target: Glucagon-like peptide 1 receptor (Homo sapiens, UniProt P43220); assay: Agonist activity at human GLP1R expressed in HEK293 cells after 5 hrs by luciferase reporter gene assay
[3] = target: T2, Glucagon-like peptide 2 receptor (Homo sapiens) (UniProt O95838); assay: Potency index, ratio of compound EC50 to compound 2 EC50 for human GLP2R expressed in HEK293 cells
T2 sequence (whole entry): T1 sequence (O95838 whole entry)

HEK293 = assay: Selectivity ratio of EC50 for human GLP1R expressed in HEK293 cells to EC50 for human GLP2R expressed in HEK293
[4] = target: Glucagon receptor (Homo sapiens) (UniProt P47871); assay: Agonist activity at human GCGR expressed in HEK293 cells after 5 hrs by luciferase reporter gene assay
Chain of Glucagon receptor (Homo sapiens) (P47871 whole entry): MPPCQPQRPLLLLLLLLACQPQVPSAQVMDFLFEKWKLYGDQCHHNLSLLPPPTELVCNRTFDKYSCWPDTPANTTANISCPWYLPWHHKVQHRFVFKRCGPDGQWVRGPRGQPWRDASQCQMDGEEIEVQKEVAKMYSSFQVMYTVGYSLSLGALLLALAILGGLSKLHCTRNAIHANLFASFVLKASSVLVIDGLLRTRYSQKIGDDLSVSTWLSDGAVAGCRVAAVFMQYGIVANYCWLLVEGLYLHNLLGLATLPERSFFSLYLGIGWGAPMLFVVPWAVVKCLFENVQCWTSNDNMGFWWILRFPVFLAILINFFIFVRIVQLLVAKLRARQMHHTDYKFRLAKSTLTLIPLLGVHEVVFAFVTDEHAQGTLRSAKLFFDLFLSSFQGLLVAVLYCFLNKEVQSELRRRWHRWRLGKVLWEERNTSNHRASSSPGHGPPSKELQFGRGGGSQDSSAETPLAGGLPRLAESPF

Chain of Glucagon-like peptide 1 receptor (P43220 whole entry): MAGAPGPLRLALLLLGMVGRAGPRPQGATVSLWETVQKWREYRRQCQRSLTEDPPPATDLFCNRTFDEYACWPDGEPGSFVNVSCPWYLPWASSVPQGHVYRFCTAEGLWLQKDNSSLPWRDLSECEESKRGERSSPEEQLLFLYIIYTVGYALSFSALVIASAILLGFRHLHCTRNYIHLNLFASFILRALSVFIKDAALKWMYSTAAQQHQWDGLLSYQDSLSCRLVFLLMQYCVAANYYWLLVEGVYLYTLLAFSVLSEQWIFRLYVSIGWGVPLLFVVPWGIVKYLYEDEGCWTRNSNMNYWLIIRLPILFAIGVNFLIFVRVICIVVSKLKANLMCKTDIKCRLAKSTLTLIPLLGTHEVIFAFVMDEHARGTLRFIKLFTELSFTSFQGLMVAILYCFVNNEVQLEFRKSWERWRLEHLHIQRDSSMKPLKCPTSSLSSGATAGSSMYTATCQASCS

| pEC50 [1] | pEC50 [2] | Ratio EC50 [3] | Activity [4] | Structure (SMILES) | Ratio EC50 (HEK293) |
| --- | --- | --- | --- | --- | --- |
| 8.35 | < 6.00 | 20 | inactive | CCCCC(NC(=O)[C@H](CCC(=O)O)NC(=O)[C@H](CC(=O)O)NC(=O)[C@H](CO)NC(=O)[C@H](Cc1ccccc1)NC(=O)[C@H](CO)NC(=O)CNC(=O)[C@H](CC(=O)O)NC(=O)CNC(=O)[C@@H](N)Cc1cnc[nH]1)C(=O)N[C@@H](CC(N)=O)C(=O)N[C@H](C(=O)N[C@H](C(=O)N[C@@H](CC(C)C)C(=O)N[C@@H](CC(=O)O)C(=O)N[C@@H](CC(N)=O)C(=O)N[C@@H](CC(C)C)C(=O)N[C@@H](C)C(=O)N[C@@H](C)C(=O)N[C@@H](CCCNC(=N)N)C(=O)N[C@@H](CC(=O)O)C(=O)N[C@@H](Cc1ccccc1)C(=O)N[C@H](C(=O)N[C@@H](CC(N)=O)C(=O)N[C@@H](Cc1c[nH]c2ccccc12)C(=O)N[C@@H](CC(C)C)C(=O)N[C@H](C(=O)N[C@@H](CCC(N)=O)C(=O)N[C@@H](C(=O)N[C@@H](CCCCN)C(N)=O)[C@H](C)O)[C@@H](C)CC)[C@@H](C)CC)[C@@H](C)CC)[C@@H](C)O (stereo not given in full) | > 220 |
| 8.82 | < 6.00 | 6.8 | inactive | CCCCC(NC(=O)[C@H](CCC(=O)O)NC(=O)[C@H](CC(=O)O)NC(=O)[C@H](CO)NC(=O)[C@H](Cc1ccccc1)NC(=O)[C@H](CO)NC(=O)CNC(=O)[C@H](CC(=O)O)NC(=O)CNC(=O)[C@@H](N)Cc1cnc[nH]1)C(=O)N[C@@H](CC(N)=O)C(=O)N[C@@H](C(=O)N[C@H](C(=O)N[C@@H](CC(C)C)C(=O)N[C@@H](CC(=O)O)C(=O)N[C@@H](CC(N)=O)C(=O)N[C@@H](CC(C)C)C(=O)N[C@@H](C)C(=O)N[C@@H](C)C(=O)N[C@@H](CCCNC(=N)N)C(=O)N[C@@H](CC(=O)O)C(=O)N[C@@H](Cc1ccccc1)C(=O)N[C@H](C(=O)N[C@@H](CC(N)=O)C(=O)N[C@@H](Cc1c[nH]c2ccccc12)C(=O)N[C@@H](CC(C)C)C(=O)N[C@H](C(=O)N[C@@H](CCC(N)=O)C(=O)N[C@H](C(=O)N[C@@H](CCCCN)C(N)=O)[C@@H](C)O)[C@@H](C)CC)[C@@H](C)CC)[C@@H](C)CC)[C@H](C)O (stereo not given in full) | > 660 |
| 8.05 | < 6.00 | 40 | inactive | CCCCC(NC(=O)[C@H](CCC(=O)O)NC(=O)[C@H](CC(=O)O)NC(=O)[C@H](CO)NC(=O)[C@H](Cc1ccccc1)NC(=O)[C@H](CO)NC(=O)CNC(=O)[C@H](CC(=O)O)NC(=O)CNC(=O)[C@@H](N)Cc1cnc[nH]1)C(=O)N[C@@H](CC(N)=O)C(=O)N[C@H](C(=O)N[C@H](C(=O)N[C@H](CC(C)C)C(=O)N[C@@H](CC(=O)O)C(=O)N[C@@H](CC(N)=O)C(=O)N[C@@H](CC(C)C)C(=O)N[C@@H](C)C(=O)N[C@@H](C)C(=O)N[C@@H](CCCNC(=N)N)C(=O)N[C@@H](CC(=O)O)C(=O)N[C@@H](Cc1ccccc1)C(=O)N[C@H](C(=O)N[C@@H](CC(N)=O)C(=O)N[C@@H](Cc1c[nH]c2ccccc12)C(=O)N[C@@H](CC(C)C)C(=O)N[C@H](C(=O)N[C@@H](CCC(N)=O)C(=O)N[C@H](C(=O)N[C@@H](CCCCN)C(N)=O)[C@@H](C)O)[C@@H](C)CC)[C@@H](C)CC)[C@@H](C)CC)[C@@H](C)O (stereo not given in full) | > 110 |
| 8.35 | < 6.00 | 20 | inactive | CCCCC(NC(=O)[C@H](CCC(=O)O)NC(=O)[C@H](CC(=O)O)NC(=O)[C@H](CO)NC(=O)[C@H](Cc1ccccc1)NC(=O)[C@H](CO)NC(=O)CNC(=O)[C@H](CC(=O)O)NC(=O)CNC(=O)[C@@H](N)Cc1cnc[nH]1)C(=O)N[C@@H](CC(N)=O)C(=O)N[C@H](C(=O)N[C@H](C(=O)N[C@@H](CC(C)C)C(=O)N[C@@H](CC(=O)O)C(=O)N[C@@H](CC(N)=O)C(=O)N[C@@H](CC(C)C)C(=O)N[C@H](C)C(=O)N[C@@H](C)C(=O)N[C@@H](CCCNC(=N)N)C(=O)N[C@@H](CC(=O)O)C(=O)N[C@@H](Cc1ccccc1)C(=O)N[C@H](C(=O)N[C@@H](CC(N)=O)C(=O)N[C@@H](Cc1c[nH]c2ccccc12)C(=O)N[C@@H](CC(C)C)C(=O)N[C@H](C(=O)N[C@@H](CCC(N)=O)C(=O)N[C@H](C(=O)N[C@@H](CCCCN)C(N)=O)[C@@H](C)O)[C@@H](C)CC)[C@@H](C)CC)[C@@H](C)CC)[C@@H](C)O (stereo not given in full) | > 220 |
| 8.15 | < 6.00 | 32 | inactive | CCCCC(NC(=O)[C@@H](CCC(=O)O)NC(=O)[C@H](CC(=O)O)NC(=O)[C@H](CO)NC(=O)[C@H](Cc1ccccc1)NC(=O)[C@H](CO)NC(=O)CNC(=O)[C@H](CC(=O)O)NC(=O)CNC(=O)[C@@H](N)Cc1cnc[nH]1)C(=O)N[C@@H](CC(N)=O)C(=O)N[C@H](C(=O)N[C@H](C(=O)N[C@@H](CC(C)C)C(=O)N[C@@H](CC(=O)O)C(=O)N[C@@H](CC(N)=O)C(=O)N[C@@H](CC(C)C)C(=O)N[C@@H](C)C(=O)N[C@@H](C)C(=O)N[C@@H](CCCNC(=N)N)C(=O)N[C@@H](CC(=O)O)C(=O)N[C@@H](Cc1ccccc1)C(=O)N[C@H](C(=O)N[C@@H](CC(N)=O)C(=O)N[C@@H](Cc1c[nH]c2ccccc12)C(=O)N[C@@H](CC(C)C)C(=O)N[C@H](C(=O)N[C@@H](CCC(N)=O)C(=O)N[C@H](C(=O)N[C@@H](CCCCN)C(N)=O)[C@@H](C)O)[C@@H](C)CC)[C@@H](C)CC)[C@@H](C)CC)[C@@H](C)O (stereo not given in full) | > 140 |

Second part, the compound before the results:

| Structure (SMILES) | pEC50 [1] | pEC50 [2] | Ratio EC50 [3] | Activity [4] | Ratio EC50 (HEK293) |
| --- | --- | --- | --- | --- | --- |
| CCCCC(NC(=O)[C@H](CCC(=O)O)NC(=O)[C@H](CC(=O)O)NC(=O)[C@H](CO)NC(=O)[C@H](Cc1ccccc1)NC(=O)[C@H](CO)NC(=O)CNC(=O)[C@H](CC(=O)O)NC(=O)CNC(=O)[C@@H](N)Cc1cnc[nH]1)C(=O)N[C@@H](CC(N)=O)C(=O)N[C@H](C(=O)N[C@H](C(=O)N[C@@H](CC(C)C)C(=O)N[C@@H](CC(=O)O)C(=O)N[C@@H](CC(N)=O)C(=O)N[C@@H](CC(C)C)C(=O)N[C@@H](C)C(=O)N[C@@H](C)C(=O)N[C@@H](CCCNC(=N)N)C(=O)N[C@H](CC(=O)O)C(=O)N[C@@H](Cc1ccccc1)C(=O)N[C@H](C(=O)N[C@@H](CC(N)=O)C(=O)N[C@@H](Cc1c[nH]c2ccccc12)C(=O)N[C@@H](CC(C)C)C(=O)N[C@H](C(=O)N[C@@H](CCC(N)=O)C(=O)N[C@H](C(=O)N[C@@H](CCCCN)C(N)=O)[C@@H](C)O)[C@@H](C)CC)[C@@H](C)CC)[C@@H](C)CC)[C@@H](C)O (stereo not given in full) | 9.33 | < 6.00 | 2.1 | inactive | > 2100 |
| CCCCC(NC(=O)[C@H](CCC(=O)O)NC(=O)[C@H](CC(=O)O)NC(=O)[C@H](CO)NC(=O)[C@H](Cc1ccccc1)NC(=O)[C@H](CO)NC(=O)CNC(=O)[C@H](CC(=O)O)NC(=O)CNC(=O)[C@@H](N)Cc1cnc[nH]1)C(=O)N[C@@H](CC(N)=O)C(=O)N[C@H](C(=O)N[C@H](C(=O)N[C@@H](CC(C)C)C(=O)N[C@@H](CC(=O)O)C(=O)N[C@@H](CC(N)=O)C(=O)N[C@@H](CC(C)C)C(=O)N[C@@H](C)C(=O)N[C@@H](C)C(=O)N[C@H](CCCNC(=N)N)C(=O)N[C@@H](CC(=O)O)C(=O)N[C@@H](Cc1ccccc1)C(=O)N[C@H](C(=O)N[C@@H](CC(N)=O)C(=O)N[C@@H](Cc1c[nH]c2ccccc12)C(=O)N[C@@H](CC(C)C)C(=O)N[C@H](C(=O)N[C@@H](CCC(N)=O)C(=O)N[C@H](C(=O)N[C@@H](CCCCN)C(N)=O)[C@@H](C)O)[C@@H](C)CC)[C@@H](C)CC)[C@@H](C)CC)[C@@H](C)O (stereo not given in full) | 8.66 | < 6.00 | 10 | inactive | > 450 |
| CCCC[C@@H](NC(=O)[C@H](CCC(=O)O)NC(=O)[C@H](CC(=O)O)NC(=O)[C@H](CO)NC(=O)[C@H](Cc1ccccc1)NC(=O)[C@H](CO)NC(=O)CNC(=O)[C@H](CC(=O)O)NC(=O)CNC(=O)[C@@H](N)Cc1cnc[nH]1)C(=O)N[C@@H](CC(N)=O)C(=O)N[C@H](C(=O)N[C@H](C(=O)N[C@@H](CC(C)C)C(=O)N[C@@H](CC(=O)O)C(=O)N[C@@H](CC(N)=O)C(=O)N[C@@H](CC(C)C)C(=O)N[C@@H](C)C(=O)N[C@@H](C)C(=O)N[C@@H](CCCNC(=N)N)C(=O)N[C@@H](CC(=O)O)C(=O)N[C@@H](Cc1ccccc1)C(=O)N[C@H](C(=O)N[C@@H](CC(N)=O)C(=O)N[C@@H](Cc1c[nH]c2ccccc12)C(=O)N[C@@H](CC(C)C)C(=O)N[C@H](C(=O)N[C@@H](CCC(N)=O)C(=O)N[C@H](C(=O)N[C@@H](CCCCN)C(N)=O)[C@@H](C)O)[C@@H](C)CC)[C@@H](C)CC)[C@@H](C)CC)[C@@H](C)O | 9.64 | < 6.00 | 1 | inactive | > 4300 |
